Assay results from ChEMBL document CHEMBL4828747, “Structure-Activity Relationships of Withanolides as Antiproliferative Agents for Multiple Myeloma: Comparison of Activity in 2D Models and a 3D Coculture Model” (J Nat Prod, 2021).
pIC50: −log10 of the molar value.

Columns and labels:
RPMI-8226 [1] = assay: Antiproliferative activity against human RPMI-8226 cells cultured as 3D-spheroids assessed as reduction in cell viability after 48 hrs by Celltiter-Glo assay; type: functional, cell-based; settings: RPMI-8226, 48 h
MM1.S = assay: Antiproliferative activity against human MM1.S cells assessed as reduction in cell viability incubated for 72 hrs by XTT assay; type: functional, cell-based
RPMI-8226 [2] = assay: Antiproliferative activity against human RPMI 8226 cells assessed as reduction in cell viability incubated for 72 hrs by XTT assay; type: functional, cell-based; settings: RPMI-8226, 72 h
[3] = Antiproliferative activity against human MM1.R cells assessed as reduction in cell viability incubated for 72 hrs by XTT assay; type: functional, cell-based; settings: MM.1R
[4] = Stability in human RPMI 8226 cells medium measured upto 72 hrs by HPLC analysis; type: ADME, cell-based; settings: rpmi-8226, 72 h

| SMILES | pIC50 (RPMI-8226 [1]) | pIC50 (MM1.S) | pIC50 (RPMI-8226 [2]) | pIC50 [3] | Stability [4] |
| --- | --- | --- | --- | --- | --- |
| CC(=O)O[C@H]1C=CC(=O)[C@]2(C)[C@H]3CC[C@]4(C)[C@@H]([C@H](C)[C@H]5CC(C)=C(CO)C(=O)O5)CC[C@H]4[C@@H]3C[C@H]3O[C@]132 | 5.86 | 7.01 | 6.69 | 6.89 | – |
| CC1=C(C)C(=O)O[C@@H]([C@](C)(O)[C@H]2CC[C@H]3[C@@H]4C[C@H]5O[C@]56C(=O)C=CC(=O)[C@]6(C)[C@H]4CC[C@]23C)C1 | < 4.40 | 6.12 | 6.56 | 6.07 | – |
| CC1=C(CO)C(=O)O[C@@H]([C@@H](C)[C@H]2CC[C@H]3[C@@H]4C[C@H](I)[C@]5(O)[C@@H](O)C=CC(=O)[C@]5(C)[C@H]4CC[C@]23C)C1 | – | – | 6.05 | – | – |
| CC1=C(C)C(=O)O[C@@H]([C@](C)(O)[C@H]2CC[C@H]3[C@@H]4C[C@H]5O[C@]56[C@@H](O)C=CC(=O)[C@]6(C)[C@H]4CC[C@]23C)C1 [WITHANOLIDE D] | 6.01 | 6.97 | 7.12 | 6.97 | – |
| CC1=C(C)C(=O)O[C@@H]([C@](C)(O)[C@H]2CC[C@H]3[C@@H]4CC=C5[C@H](O)C=CC(=O)[C@]5(C)[C@H]4CC[C@]23C)C1 | – | – | 6.11 | – | – |
| CC1=C(CO)C(=O)O[C@@H]([C@@H](C)[C@H]2CC[C@H]3[C@@H]4C[C@H]5O[C@]56[C@@H](O)[C@@H](OS(=O)(=O)O)CC(=O)[C@]6(C)[C@H]4CC[C@]23C)C1 | 5.07 | 6.94 | 6.66 | 6.89 | – |
| CC1=C(CO[Si](C)(C)C(C)(C)C)C(=O)O[C@@H]([C@@H](C)[C@H]2CC[C@H]3[C@@H]4C[C@H]5O[C@]56[C@@H](O[Si](C)(C)C)C=CC(=O)[C@]6(C)[C@H]4CC[C@]23C)C1 | – | – | – | – | Stable |
| C[C@H]1[C@H]([C@@H](O)[C@](C)(O)[C@H]2[C@@H](O)C[C@H]3[C@@H]4C[C@H]5O[C@]56[C@@H](O)C=CC(=O)[C@]6(C)[C@H]4CC[C@]23C)OC(=O)[C@@H]1C | – | – | 6.22 | – | – |
| CC(=O)OCC1=C(C)C[C@H]([C@@H](C)[C@H]2CC[C@H]3[C@@H]4C[C@H]5O[C@]56[C@@H](O)[C@@H](OC(C)=O)CC(=O)[C@]6(C)[C@H]4CC[C@]23C)OC1=O | < 4.40 | 6.64 | 6.60 | 6.43 | – |
| CC(=O)OCC1=C(C)C[C@H]([C@@H](C)[C@H]2CC[C@H]3[C@@H]4C[C@H]5O[C@]56C(=O)C=CC(=O)[C@]6(C)[C@H]4CC[C@]23C)OC1=O | – | – | 6.11 | – | – |
| C[C@H]1C(=O)O[C@@H]([C@](C)(O)[C@H]2CC[C@H]3[C@@H]4C[C@H]5O[C@]56[C@@H](O)C=CC(=O)[C@]6(C)[C@H]4CC[C@]23C)C[C@@]1(C)O | 4.91 | 5.89 | 6.35 | 6.00 | – |
| CC1C(=O)O[C@@H]([C@](C)(O)C2=CC[C@@]3(O)[C@@H]4C[C@H]5O[C@]56[C@@H](O)C=CC(=O)[C@]6(C)[C@H]4CC[C@]23C)C[C@@H]1C (some centres not stated) | 5.64 | 6.47 | 6.91 | 6.68 | – |
| CC1=C(C)C(=O)O[C@@H]([C@](C)(O)[C@H]2CC[C@H]3[C@@H]4C[C@H]5O[C@]56CC=CC(=O)[C@]6(C)[C@H]4CC[C@]23C)C1 | – | – | 6.13 | – | – |
| CC1=C(C)C(=O)O[C@@H]([C@](C)(O)[C@H]2[C@@H](O)C[C@H]3[C@@H]4C[C@H](I)[C@]5(O)[C@@H](O)C=CC(=O)[C@]5(C)[C@H]4CC[C@]23C)C1 | – | – | 6.22 | – | – |
| CC(=O)O[C@H]1C=CC(=O)[C@]2(C)[C@H]3CC[C@@]4(C)[C@H]([C@@H]3C[C@H]3O[C@]132)[C@H](OC(C)=O)C[C@@H]4[C@@](C)(O)[C@H]1CC(C)=C(C)C(=O)O1 | 5.47 | 6.43 | 6.66 | 6.49 | – |
| CC1=C(C)C(=O)O[C@@H]([C@](C)(O)[C@H]2CC[C@H]3[C@@H]4C[C@H](I)[C@]5(O)[C@@H](O)C=CC(=O)[C@]5(C)[C@H]4CC[C@]23C)C1 | – | – | 6.26 | – | – |

| SMILES | pIC50 (RPMI-8226 [1]) | pIC50 (MM1.S) | pIC50 (RPMI-8226 [2]) | pIC50 [3] | Stability [4] |
| --- | --- | --- | --- | --- | --- |
| CC1=C(C)C(=O)O[C@@H]([C@](C)(O)[C@H]2CC[C@H]3[C@@H]4C[C@H](I)[C@]5(O)C(=O)C=CC(=O)[C@]5(C)[C@H]4CC[C@]23C)C1 | – | – | 6.02 | – | – |
| C[C@H]1C[C@H]([C@](C)(O)[C@H]2[C@@H](O)C[C@H]3[C@@H]4C[C@H]5O[C@]56[C@@H](O)C=CC(=O)[C@]6(C)[C@H]4CC[C@]23C)OC(=O)[C@@H]1C | 5.49 | 6.21 | 6.56 | 6.37 | – |
| CC(=O)OCC1=C(C)C[C@H]([C@@H](C)[C@H]2CC[C@H]3[C@@H]4CC=C5C(O)C=CC(=O)[C@]5(C)[C@H]4CC[C@]23C)OC1=O (some centres not stated) | – | – | 6.11 | – | – |
| C[C@H]1C[C@H]([C@](C)(O)[C@@]2(O)CC[C@H]3[C@@H]4C[C@H]5O[C@]56[C@@H](O)C=CC(=O)[C@]6(C)[C@H]4CC[C@@]32C)OC(=O)[C@@H]1C | < 4.40 | 5.74 | 6.30 | 5.96 | – |
| CC(=O)OCC1=C(C)C[C@H]([C@@H](C)[C@H]2CC[C@H]3[C@@H]4CC=C5C(=O)C=C[C@@H](OC(C)=O)[C@]5(C)[C@H]4CC[C@]23C)OC1=O | – | – | 6.03 | – | – |
| CC1=C(C)C(=O)O[C@@H]([C@](C)(O)[C@H]2CC[C@H]3[C@@H]4C[C@H]5O[C@]56C(O)C=CC(=O)[C@]6(C)[C@H]4CC[C@]23C)C1 (some centres not stated) | 5.80 | 6.36 | 6.53 | 6.43 | – |
| CC(C)C[C@H](NC(=O)[C@H](Cc1ccccc1)NC(=O)c1cnccn1)B(O)O [BORTEZOMIB] | 8.19 | 8.60 | 8.33 | 8.62 | – |
| CC1=C(CO)C(=O)O[C@@H]([C@@H](C)[C@H]2CC[C@H]3[C@@H]4C[C@H]5O[C@]56[C@@H](O)[C@@H](n5ccnc5)CC(=O)[C@]6(C)[C@H]4CC[C@]23C)C1 | 5.58 | 7.22 | 6.57 | 7.12 | – |
| CC1=C(CO)C(=O)O[C@@H]([C@@H](C)[C@H]2CC[C@H]3[C@@H]4C[C@H]5O[C@]56[C@@H](O)[C@@H](N5CCCCC5)CC(=O)[C@]6(C)[C@H]4CC[C@]23C)C1 | 5.73 | 7.26 | 6.32 | 7.10 | – |
| CC(=O)OCC1=C(C)C[C@H]([C@@H](C)[C@H]2CC[C@H]3[C@@H]4C[C@H]5O[C@]56[C@@H](O)C=CC(=O)[C@]6(C)[C@H]4CC[C@]23C)OC1=O | 5.82 | 6.94 | 6.67 | 6.97 | – |
| CC(=O)O[C@H]1C=CC(=O)[C@]2(C)[C@H]3CC[C@]4(C)[C@@H]([C@@](C)(O)[C@H]5CC(C)=C(C)C(=O)O5)CC[C@H]4[C@@H]3C[C@H]3O[C@]132 | 6.09 | 6.69 | 6.60 | 6.46 | – |
| CC1=C(CO)C(=O)O[C@@H]([C@@H](C)[C@H]2CC[C@H]3[C@@H]4C[C@H]5O[C@]56[C@@H](O)C=CC(=O)[C@]6(C)[C@H]4CC[C@]23C)C1 [WITHAFERIN A] | 5.80 | 7.28 | 6.59 | 6.58 | – |
| CC1=C(C)C(=O)O[C@@H]([C@](C)(O)[C@H]2CC[C@H]3[C@@H]4CC=C5C(=O)C=CC(=O)[C@]5(C)[C@H]4CC[C@]23C)C1 | – | – | 6.11 | – | – |
| CC(=O)O[C@@H]1C=CC(=O)[C@]2(C)[C@H]3CC[C@]4(C)[C@@H]([C@@](C)(O)[C@H]5CC(C)=C(C)C(=O)O5)CC[C@H]4[C@@H]3C[C@H]3O[C@]132 | 5.79 | 6.22 | 6.52 | 6.28 | – |
| C[C@@H]1[C@@H](C)C(=O)OC12C[C@](C)(O)C1[C@H](C[C@H]3[C@@H]4C[C@H]5O[C@]56[C@@H](O)C=CC(=O)[C@]6(C)[C@H]4CC[C@]13C)O2 (some centres not stated) | 5.33 | 6.25 | 6.62 | 6.44 | – |
| CC(=O)OCC1=C(C)C[C@H]([C@@H](C)[C@H]2CC[C@H]3[C@@H]4CC=C5C(=O)C=CC(=O)[C@]5(C)[C@H]4CC[C@]23C)OC1=O | 5.00 | 6.61 | 6.34 | 6.63 | – |
